Laboratory results from patent US11951171B2, “Polypeptide EXP and its drug delivery system as well as extracellular vesicle extraction” (TIANJIN MEDICAL UNIVERSITY, priority 2019, dated 2024).

Experiments:
[1] = tested on: exosomes recovered by EXP; assay: Binding efficiency of CP05 and EXP with serum exosomes recovered by EXP; settings: serum exosomes recovered by EXP (FIG. 6E)
[2] = tested on: MVmyo (microvesicles derived from differentiated muscle cells); assay: Binding efficiency of EXP and CP05 to microvesicles (flow cytometer); settings: flow cytometer (FIG. 8C)
Source text: (A)Western blot is used to identify and compare the expression of biomarker proteins of MV and exosomes. It's shown by the results that Tetraspanin family proteins like CD81, CD9 and CD63 were expressed in MV, but mitochondrial marker protein Cytochrome C was not expressed. (B) particle size distribution of MV from different sources were detected by Nanosight. MVmyot means microvesicles derived from differentiated muscle cells; MVurine means microvesicles derived from urine. (C) Examination of the binding efficiency of EXP and CP05 to MVmyo was detected by flow cytometer. […] (E)Western blot was used to detect the recovery of dystrophin protein expression after MVEXPPMO treatment. […]

CD63 = target: T1, CD63 (Mus musculus, UniProt P41731); assay: EXP target detection by co-immunoprecipitation, silver staining and Western blot; assay type: binding; settings: Flag-tagged peptide on anti-flag beads, C2C12 lysate; band about 45 kD and 25 kD
T1 construct: endogenous in cells; host or cells: C2C12 cells (lysate)
T1 sequence (P41731 1-238): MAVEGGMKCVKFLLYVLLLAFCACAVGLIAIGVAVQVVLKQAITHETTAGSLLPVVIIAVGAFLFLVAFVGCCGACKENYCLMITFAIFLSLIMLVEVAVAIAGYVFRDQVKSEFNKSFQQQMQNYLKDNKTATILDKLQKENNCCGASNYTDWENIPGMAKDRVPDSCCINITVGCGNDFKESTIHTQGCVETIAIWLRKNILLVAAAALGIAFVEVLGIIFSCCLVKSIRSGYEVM
Protocol: (§1) (A) Silver staining and Western blot were used to detect the interest proteins band obtained by co-immunoprecipitation. Flag-tagged CP05 or EXP was incubated with anti-flag coated beads, and followed by co-incubation with cell lysates after removing the free peptides which were unconjugated with beads. The specific enriched proteins in the cell protein lysate were fished by using the polypeptide. Then the size distribution of the fishing strip was detected by silver staining, and the expression of different Tetraspanin family proteins in the fishing strip was detected by Western blot. […] (B)Immunoprecipitation was used to catch the target of EXP. The results are the same as above. […]

CD81 = target: T2, CD81 (Mus musculus, UniProt P35762); assay: as above; assay type: binding; settings: Flag-tagged peptide on anti-flag beads, C2C12 lysate; band about 45 kD and 25 kD
T2 construct: endogenous in cells; host or cells: C2C12 cells (lysate)
T2 sequence (P35762 1-236): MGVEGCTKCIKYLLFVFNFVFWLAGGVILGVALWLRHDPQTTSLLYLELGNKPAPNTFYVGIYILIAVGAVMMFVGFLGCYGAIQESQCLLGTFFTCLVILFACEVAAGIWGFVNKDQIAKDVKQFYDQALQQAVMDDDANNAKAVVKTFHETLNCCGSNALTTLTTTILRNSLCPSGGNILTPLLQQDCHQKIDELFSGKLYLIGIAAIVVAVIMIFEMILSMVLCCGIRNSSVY
Protocol: as §1

[3] = tested on: exosome from differentiated muscle cells C2C12(dC2C12); assay: Flow cytometry binding of FAM-labeled peptides to exosome; set-up: species or system murine
Protocol: The FAM-labeled peptides EXP, CP05, 39880, 39881 were respectively co-incubated with exosome from differentiated muscle cells C2C12(dC2C12), and the binding efficiency of different polypeptides with exosome was detected by flow cytometry.
Each sign in the figure represents the detection results of the following sequences: EXO represents exosomes derived from murine myotubes; CP05 represents the polypeptide which is recorded in the prior art Chinese patent No. CN201510520565.7; EXP represents the polypeptide of the present invention (SEQ ID NO.1). 39880 and 399881 respectively represent two other variants of CP05. (A) Flow cytometry to detected the binding efficiency of different peptides with exosomes. […] (B) Flow cytometry to detected the capacity to enter cells of different peptides mediated by exosome. The equivalent amount FAM-labeled polypeptides were incubated with exosome derived from dC2C12 and added into C2C12 cells, and the capacity of enter cells was detected 24 hours later. It's shown by the results that 65.6% of EXO-EXP entered cells whose capacity is highest. (C) Quantitative analysis of different peptides entering cells mediated by exosome. […] (D) the binding efficiency of different amount gradients of CP05 and EXP to the equivalent amount of exosomes was detected by Flow cytometry to. Different amounts of EXP and CP05(0.03 μg, […], 0.3 μg) were co-incubated with exosomes (10 μg), and their binding efficiency was compared by flow cytometry.
1.1 Flow cytometry is used to detect the binding capacity of EXP and other peptides to exosome. • (1) FAM-labeled CP05 and other peptides respectively with amount of […] were mixed with exosome from different source like dC2C12, CDC and serum respectively with amount of […], and DPBS is used to make up a deficiency to 200 μl in volume with. • (2) The mixture prepared as described in (1) was incubated at 4° C. for 2-4 hrs under rotation in vertical shaker. • (3) the binding efficiency was detected with flow cytometry.

binding efficiency with recovered exosomes [1]: 95.9% | protein band fished from cell lysate, confirmed by Western blot as CD63 (CD63): distinct protein bands | protein band fished from cell lysate, confirmed by Western blot as CD81 (CD81): distinct protein bands
Sequence: CRHKMWTVKSRL (EXP)
binding efficiency to MVmyot compared with CP05 [2]: significantly higher than that of CP05 | binding efficiency with exosome under different amount gradients, compared with CP05 ([3]; 0.03 μg, 0.06 g, 0.3 μg peptide co-incubated with exosomes (10 μg), FIG. 1D): all higher than that of CP05 | binding efficiency to exosomes ([3]; FAM-labeled peptide co-incubated with exosome from dC2C12, flow cytometry (FIG. 1A)): up to 95.5% | binding efficiency of EXP with exosomes compared to CP05 ([3]; under the same conditions): about 2 times
